# Test system: BALB/3T3
# Assay: Cytotoxicity against mouse BALB/3T3 cells assessed as cell growth inhibition measured after 24 hrs by neutral red uptake assay
# Format: cell-based
# Conditions: balb/3t3, 24 h
compound,measurement,value
COC(=O)c1[nH]c2ccc(F)cc2c1/C=C1\SC(=S)NC1=O,GI20,5.4 µM
same,GI80,> 100 µM
